One test is filed under the species Homo sapiens. Nature of the test: Selectivity index, ratio of IC50 for human MAO-B to IC50 for human MAO-A.
Test [1] has as its target T1, Amine oxidase [flavin-containing] B (Homo sapiens, UniProt P27338).
T1 sequence (P27338 whole entry): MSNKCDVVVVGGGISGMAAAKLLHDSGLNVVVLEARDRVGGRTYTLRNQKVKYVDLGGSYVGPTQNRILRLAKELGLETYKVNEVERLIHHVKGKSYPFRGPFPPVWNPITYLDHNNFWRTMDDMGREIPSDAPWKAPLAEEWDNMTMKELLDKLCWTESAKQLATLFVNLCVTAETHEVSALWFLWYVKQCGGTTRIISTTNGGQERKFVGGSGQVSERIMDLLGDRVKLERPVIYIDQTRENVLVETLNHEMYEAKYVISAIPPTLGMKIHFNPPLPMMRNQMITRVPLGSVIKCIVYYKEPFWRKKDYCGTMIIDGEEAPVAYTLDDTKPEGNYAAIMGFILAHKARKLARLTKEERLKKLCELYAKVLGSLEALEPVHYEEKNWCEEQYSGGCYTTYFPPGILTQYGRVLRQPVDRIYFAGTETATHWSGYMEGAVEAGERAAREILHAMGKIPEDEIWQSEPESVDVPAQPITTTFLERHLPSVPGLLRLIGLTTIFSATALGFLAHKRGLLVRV
Briefly: biochemical. Format: cell-based, BTI-TN-5B1-4.
Description: Inhibition of human MAO-B expressed in baculovirus infected BTI-TN-5B1-4 insect cells using p-tyramine as substrate assessed as hydrogen peroxide production by fluorimetric method

Test [2] deals with T2, Amine oxidase [flavin-containing] A (Homo sapiens, UniProt P21397).
T2 sequence (P21397 whole entry): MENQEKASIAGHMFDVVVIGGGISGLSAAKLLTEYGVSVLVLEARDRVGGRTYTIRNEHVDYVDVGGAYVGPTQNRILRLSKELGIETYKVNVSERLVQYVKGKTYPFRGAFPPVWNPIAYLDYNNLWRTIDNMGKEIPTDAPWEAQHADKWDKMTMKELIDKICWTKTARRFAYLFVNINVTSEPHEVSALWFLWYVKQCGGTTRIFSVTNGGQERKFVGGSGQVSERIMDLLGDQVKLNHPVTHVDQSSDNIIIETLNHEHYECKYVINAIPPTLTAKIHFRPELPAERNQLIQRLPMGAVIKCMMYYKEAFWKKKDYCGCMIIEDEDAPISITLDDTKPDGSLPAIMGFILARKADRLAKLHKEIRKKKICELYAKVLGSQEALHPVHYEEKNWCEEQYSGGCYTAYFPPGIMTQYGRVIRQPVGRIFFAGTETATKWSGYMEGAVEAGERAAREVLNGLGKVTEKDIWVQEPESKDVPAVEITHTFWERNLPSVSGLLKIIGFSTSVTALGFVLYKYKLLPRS
Briefly: Inhibition of human MAO-A expressed in baculovirus infected BTI-TN-5B1-4 insect cells using p-tyramine as substrate assessed as hydrogen peroxide production by fluorimetric method.

Usually IC50 stands for the concentration at which inhibition is half-maximal. With `Cc1sc(N/N=C/c2ccc3c(c2)OCO3)nc1-c1ccccc1`, in the test filed under Homo sapiens, the Ratio IC50 turned out to be 0.76. The IC50 in test [1] was 6570 nM; in test [2] it was 8630 nM.
As for `C/C(CC(C)C)=N/Nc1nc(-c2ccccc2)c(C)s1`, the Ratio IC50 in the test filed under Homo sapiens came to 1.16. Besides, the figures for the IC50 in test [1] and in test [2] were 2780 nM and 2400 nM, respectively.
Taken in the same sequence, the figures for `C/C(=N\Nc1nc(-c2ccc3ccccc3c2)cs1)c1ccco1` were 1.3, 2290 nM and 1770 nM.
For `C=CCC/C(C)=N\Nc1nc(-c2ccc3ccccc3c2)cs1` the same measures were 2.86, 3940 nM and 1370 nM.
On to `CCC/C(C)=N\Nc1nc(-c2ccccc2)c(C)s1`, for which, in the test filed under Homo sapiens, the Ratio IC50 was found to be 0.9. The results for the IC50 in test [1] and in test [2] were 2310 nM and 2520 nM, respectively.
As to `CC(C)=NNc1nc(-c2ccc3ccccc3c2)cs1`, the Ratio IC50 in the test listed under Homo sapiens came out at 2.27. Moreover, the IC50 in test [1] came out at 3550 nM; in test [2], 1560 nM.
As to `Cc1sc(NN=C2CCCCC2)nc1-c1ccccc1`, the Ratio IC50 in the test filed under Homo sapiens was 1.01. Further, the IC50 in test [1] turned out to be 1790 nM; in test [2], 1780 nM.
With `C/C(=N\Nc1nc(-c2ccc3ccccc3c2)cs1)c1ccccc1`, in the test filed under Homo sapiens, the Ratio IC50 was found to be 3.13. Also, the IC50 in test [1] worked out at 6230 nM; in test [2] it was 2000 nM.
Regarding `C/C(=N\Nc1nc(-c2ccccc2)c(C)s1)c1nccs1`, the Ratio IC50 in the test filed under Homo sapiens stood at 0.043. In addition, the figures for the IC50 in test [1] and in test [2] were 280 nM and 6520 nM, respectively.
For `Cc1sc(N/N=C2\CCCCC2C)nc1-c1ccccc1` (configuration not stated) the same measures were 0.34, 1110 nM and 3230 nM.
For `C/C(=N\Nc1nc(-c2ccccc2)c(C)s1)c1ccccc1` the same measures were 1, 2230 nM and 2240 nM.
For the compound `Cc1sc(N/N=C/c2cccnc2)nc1-c1ccccc1`, the Ratio IC50 in the test listed under Homo sapiens came to 1.22. Also, the IC50 in test [1] came out at 2220 nM; in test [2], 1830 nM.
For `Cc1sc(NN=C2CCCCCCC2)nc1-c1ccccc1` the same measures were 0.32, 2310 nM and 7070 nM.
Taken in the same sequence, the figures for `CCC(CC)=NNc1nc(-c2ccccc2)c(C)s1` were 1.49, 2450 nM and 1650 nM.
Taken in the same sequence, the figures for `Cc1sc(N/N=C/c2c[nH]c3ccccc23)nc1-c1ccccc1` were 0.45, 1400 nM and 3120 nM.
Turning to `Cc1sc(NN=C2CCC(C)CC2)nc1-c1ccccc1` (configuration not stated), in the test filed under Homo sapiens, the Ratio IC50 is 0.66. The values for the IC50 in test [1] (bti-tn-5b1-4) and in test [2] (bti-tn-5b1-4) were 2520 nM and 3900 nM, respectively.
Turning to `CC1CC/C(=N\Nc2nc(-c3ccc4ccccc4c3)cs2)C1` (configuration not stated), the Ratio IC50 in the test filed under Homo sapiens came out at 1.82. Moreover, the IC50 amounted to 3490 nM in test [1] and 1910 nM in test [2].
As to `CCCCC/C(C)=N\Nc1nc(-c2ccc3ccccc3c2)cs1`, the Ratio IC50 in the test listed under Homo sapiens amounted to 6.67. Besides, the IC50 is 16000 nM in test [1] and 2450 nM in test [2].
On to `CCC/C(C)=N\Nc1nc(-c2ccc3ccccc3c2)cs1`, for which the Ratio IC50 in the test listed under Homo sapiens was 1.72. Also, the IC50 in test [1] came to 3110 nM; in test [2], 1810 nM.
In the case of `C(=N\Nc1nc(-c2ccc3ccccc3c2)cs1)/c1c[nH]c2ccccc12`, the Ratio IC50 in the test filed under Homo sapiens amounted to 2.56. Further, the results for the IC50 in test [1] and in test [2] were 5990 nM and 2340 nM, respectively.
Taken in the same sequence, the figures for `CC1CCC/C(=N\Nc2nc(-c3ccc4ccccc4c3)cs2)C1` (configuration not stated) were 5.56, 10800 nM and 1940 nM.
Taken in the same sequence, the figures for `C=CCC/C(C)=N\Nc1nc(-c2ccccc2)c(C)s1` were 1.27, 8850 nM and 6970 nM.
Taken in the same sequence, the figures for `C/C(=N\Nc1nc(-c2ccccc2)c(C)s1)C1CCCCC1` were 0.83, 6140 nM and 7650 nM.
As to `C/C(=N\Nc1nc(-c2ccccc2)c(C)s1)c1cccs1`, in the test filed under Homo sapiens, the Ratio IC50 turned out to be 0.9. For the same compound, the figures for the IC50 in test [1] and in test [2] were 2340 nM and 2670 nM, respectively.
On to `CC/C(C)=N\Nc1nc(-c2ccc3ccccc3c2)cs1`, for which, in the test filed under Homo sapiens, the Ratio IC50 came to 1.52. Also, the IC50 in test [1] amounted to 2650 nM; in test [2] it was 1740 nM.
`Cc1sc(NN=C2CCCC2)nc1-c1ccccc1`: in the test filed under Homo sapiens, the Ratio IC50 is 2.56. Further, the IC50 was 1410 nM in test [1] and 550 nM in test [2].
Taken in the same sequence, the figures for `Cc1sc(N/N=C/c2cccs2)nc1-c1ccccc1` were 0.9, 3050 nM and 3380 nM.
On to `C/C(=N\Nc1nc(-c2ccc3ccccc3c2)cs1)c1cccs1`, for which the Ratio IC50 in the test filed under Homo sapiens was 3.85. Besides, the IC50 in test [1] was 14500 nM; in test [2], 3730 nM.
Take `C(=N\Nc1nc(-c2ccc3ccccc3c2)cs1)/c1cccc2ccccc12`: the Ratio IC50 in the test filed under Homo sapiens was 1.41. For the same compound, the IC50 in test [1] was found to be 22900 nM; in test [2] it was 16400 nM.
For `CC/C(C)=N\Nc1nc(-c2ccccc2)c(C)s1` the same measures were 1, 1530 nM and 1550 nM.
As to `C(=N\Nc1nc(-c2ccc3ccccc3c2)cs1)/c1cccs1`, in the test filed under Homo sapiens, the Ratio IC50 is 1.72. For the same compound, the IC50 in test [1] was 4630 nM; in test [2] it was 2710 nM.
For the compound `C/C(=N\Nc1nc(-c2ccccc2)c(C)s1)c1ccccn1`, in the test filed under Homo sapiens, the Ratio IC50 amounted to 0.37. Besides, the IC50 in test [1] was determined as 880 nM; in test [2], 2390 nM.
For `Cc1sc(N/N=C/c2ccco2)nc1-c1ccccc1` the same measures were 1.72, 3060 nM and 1790 nM.
For `CC1CCC/C1=N\Nc1nc(-c2ccc3ccccc3c2)cs1` (configuration not stated) the same measures were 1.11, 2880 nM and 2600 nM.
Taken in the same sequence, the figures for `CCCC/C(CC)=N\Nc1nc(-c2ccc3ccccc3c2)cs1` were 1.28, 3760 nM and 2930 nM.
Turning to `CCCC/C(CC)=N\Nc1nc(-c2ccccc2)c(C)s1`, in the test filed under Homo sapiens, the Ratio IC50 was 1.16. Further, the IC50 in test [1] came to 4780 nM; in test [2], 4130 nM.
Taken in the same sequence, the figures for `CCCCCC/C(C)=N\Nc1nc(-c2ccccc2)c(C)s1` were 1.04, 3750 nM and 3910 nM.
`Cc1sc(N/N=C2\CCC(C)C2)nc1-c1ccccc1` (configuration not stated): the Ratio IC50 in the test filed under Homo sapiens amounted to 1.01. Also, the IC50 was determined as 2310 nM in test [1] and 2290 nM in test [2].
`Cc1sc(N/N=C2\CCCC(C)C2)nc1-c1ccccc1` (configuration not stated): the Ratio IC50 in the test listed under Homo sapiens stood at 0.76. In addition, the IC50 in test [1] came to 2880 nM; in test [2], 3630 nM.
In the case of `C/C(=N\Nc1nc(-c2ccc3ccccc3c2)cs1)c1cc2ccccc2oc1=O`, the Ratio IC50 in the test listed under Homo sapiens was 1.67. In addition, the results for the IC50 in test [1] and in test [2] were 10800 nM and 6470 nM, respectively.
For `CCC(CC)=NNc1nc(-c2ccc3ccccc3c2)cs1` the same measures were 1.25, 2320 nM and 1860 nM.
Taken in the same sequence, the figures for `C/C(CC(C)C)=N/Nc1nc(-c2ccc3ccccc3c2)cs1` were 1.54, 3560 nM and 2310 nM.
Consider `Cc1sc(N/N=C/c2ccncc2)nc1-c1ccccc1`, for which, in the test filed under Homo sapiens, the Ratio IC50 worked out at 0.16. The IC50 was found to be 1370 nM in test [1] and 8290 nM in test [2].
For the compound `Cc1sc(NN=C2CCCCCC2)nc1-c1ccccc1`, the Ratio IC50 in the test filed under Homo sapiens was found to be 0.9. Also, the IC50 came to 1960 nM in test [1] and 2110 nM in test [2].
Taken in the same sequence, the figures for `Cc1sc(N/N=C2\CCCC2C)nc1-c1ccccc1` (configuration not stated) were 0.56, 1330 nM and 2440 nM.
Consider `CCCCC/C(C)=N\Nc1nc(-c2ccccc2)c(C)s1`, for which the Ratio IC50 in the test listed under Homo sapiens came out at 1.64. For the same compound, the IC50 in test [1] is 6000 nM; in test [2], 3690 nM.
For `C/C(=N\Nc1nc(-c2ccccc2)c(C)s1)c1cc2ccccc2oc1=O` the same measures were 0.33, 3020 nM and 9180 nM.
Take `CC(C)=NNc1nc(-c2ccccc2)c(C)s1`: in the test listed under Homo sapiens, the Ratio IC50 was found to be 2.08. The IC50 in test [1] is 5280 nM; in test [2], 2550 nM.
Taken in the same sequence, the figures for `C(=N\Nc1nc(-c2ccc3ccccc3c2)cs1)/c1ccncc1` were 0.83, 7480 nM and 8670 nM.

These data come from ChEMBL document CHEMBL3217581, “Synthesis and selective inhibition of human monoamine oxidases of a large scaffold of (4,5-substituted-thiazol-2-yl)hydrazones” (Medchemcomm, 2010).
